For 18 compounds, IC50 results are on record in ChEMBL document CHEMBL1127777, “Indolocarbazole nitrogens linked by three-atom bridges: a potent new class of PKC inhibitors” (Bioorg Med Chem Lett, 1994).

Structures are written as SMILES.

This assay addresses Protein kinase C (PKC). The assay is described as follows: In vitro inhibition of protein kinase C from rat brain.
In turn, `O=C1NC(=O)c2c1c1c3ccccc3n3c1c1c2c2ccccc2n1CN(CCO)C3` registered a half-maximal inhibitory concentration (IC50) of 17 nM.
`O=C1NCc2c1c1c3ccccc3n3c1c1c2c2ccccc2n1CN(CCO)C3` showed an IC50 of 15 nM.
With `O=C1NCc2c1c1c3ccccc3n3c1c1c2c2ccccc2n1CSC3`, the half-maximal inhibitory concentration (IC50) was determined as 7 nM.
Then `O=C1NC(=O)c2c1c1c3ccccc3n3c1c1c2c2ccccc2n1CNC3`, with 145 nM; and `O=C1NC(=O)c2c1c1c3ccccc3n3c1c1c2c2ccccc2n1CN(O)C3`, with 90 nM; and `O=C1NC(=O)c2c1c1c3ccccc3n3c1c1c2c2ccccc2n1C[S+]([O-])C3`, with 19 nM.
The result for `O=C1NCc2c1c1c3ccccc3n3c1c1c2c2ccccc2n1CS(=O)(=O)C3` reads 5 nM; that for `CN1Cn2c3ccccc3c3c4c(c5c6ccccc6n(c5c32)C1)C(=O)NC4=O`, 86 nM; that for `CCOC(=O)C1n2c3ccccc3c3c4c(c5c6ccccc6n(c5c32)CS1(=O)=O)C(=O)NC4=O` (stereo not drawn), 20 nM.
In the case of `NC1=NC(=O)c2c1c1c3ccccc3n3c1c1c2c2ccccc2n1CSC3`, the half-inhibitory concentration (IC50) came out at 24 nM.
The result for `O=C1NC(=O)c2c1c1c3ccccc3n3c1c1c2c2ccccc2n1CS(=O)(=O)C3` reads 2 nM; that for `O=C1NC(=O)c2c1c1c3ccccc3n3c1c1c2c2ccccc2n1C1COCC3S1(=O)=O`, 20 nM.
The result for `O=C1NC(=O)c2c1c1c3ccccc3n3c1c1c2c2ccccc2n1CSC3` reads 14 nM; that for `NC1=NC(=O)c2c1c1c3ccccc3n3c1c1c2c2ccccc2n1COC3`, 24 nM; that for `O=C1NC(=O)c2c1c1c3ccccc3n3c1c1c2c2ccccc2n1COC3`, 11 nM.
Then `O=C1NC(=O)c2c1c1c3ccccc3n3c1c1c2c2ccccc2n1CN(C(CO)CO)C3`, with 10 nM; and `CC1n2c3ccccc3c3c4c(c5c6ccccc6n(c5c32)C(C)S1(=O)=O)C(=O)NC4=O` (stereo in doubt), with 2.4 nM.
The compound `CC1n2c3ccccc3c3c4c(c5c6ccccc6n(c5c32)C(C)S1(=O)=O)C(=O)NC4=O` (stereo in doubt; 16 (dl)) gave an IC50 of 120 nM.
